What was measured:
Format in all cases: physicochemical
[1] = Coupling of water and octanoic acid by hydrotropes (amount producing a single phase)
Protocol: Hydrotropes were added to a two-component mixture of octanoic acid and deionized (DI) water to find the amount that produced a single phase from the two separate phases of water and octanoic acid.
The percent hydrotrope required to compatibilize phases (and the resulting percent octanoic acid) were calculated and the results are shown in Table 4 as well as FIG. 1.

[2] = Hard surface cleaning formulation freeze-thaw testing; details: Example 5 formulation containing the solvent, 0° C. freezer >12 hours, thaw to room temperature
Protocol: Formulations as in Example 5 were prepared by combining ingredients and mixing until homogeneous. Freeze-thaw testing was performed over 3 cycles. Each cycle was putting the formulations into a 0° C. freezer for greater than 12 hours, then taking them out and allowing the samples to thaw to room temperature and then making the visual observation.

[3] = Hard surface cleaning formulation heat cloud point testing; details: Example 5 formulation containing the solvent, heated while mixing
Protocol: Formulations as in Example 5 were prepared by combining ingredients and mixing until homogeneous.

[4] = Coupling of water and soy methyl ester by hydrotropes
Protocol: Hydrotropes were added to a two-component mixture of soy methyl ester and DI water to find the amount that produced a single phase from the two separate phases of water and soy methyl ester. The percent hydrotrope required to compatibilize the phases was calculated.

[5] = Coupling of water and castor oil by hydrotropes
[6] = ratio of water:octanoic acid 10:90
[7] = ratio of water:octanoic acid 30:70
[8] = ratio of water:octanoic acid 50:50
[9] = ratio of water:octanoic acid 70:30
[10] = ratio of water:octanoic acid 90:10
[11] = water:octanoic acid 10:90 (DI water 0.5 g, octanoic acid 4.5 g)
[12] = water:octanoic acid 30:70 (DI water 1.5 g, octanoic acid 3.5 g)
[13] = water:octanoic acid 50:50 (DI water 5.0 g, octanoic acid 5.0 g)
[14] = water:octanoic acid 70:30 (DI water 3.5 g, octanoic acid 1.5 g)
[15] = water:octanoic acid 90:10 (DI water 4.5 g, octanoic acid 0.5 g)
[16] = ratio of water:soy methyl esters 10:90
[17] = ratio of water:soy methyl esters 30:70
[18] = ratio of water:soy methyl esters 50:50
[19] = ratio of water:soy methyl esters 70:30
[20] = ratio of water:soy methyl esters 90:10
[21] = ratio of water to castor oil 10:90
[22] = ratio of water to castor oil 30:70
[23] = ratio of water to castor oil 50:50
[24] = ratio of water to castor oil 70:30
[25] = ratio of water to castor oil 90:10
[26] = all ratios 10:90 to 90:10, measured levels up to >95%

| Compound | Wt % Hydrotrope required to compatibilize phases [1, 6] [%] | Wt % Octanoic Acid (resulting, at compatibilization) [1, 6] [%] | Wt % Hydrotrope required to compatibilize phases [1, 7] [%] | Wt % Octanoic Acid (resulting, at compatibilization) [1, 7] [%] | Wt % Hydrotrope required to compatibilize phases [1, 8] [%] | Wt % Octanoic Acid (resulting, at compatibilization) [1, 8] [%] | Wt % Hydrotrope required to compatibilize phases [1, 9] [%] | Wt % Octanoic Acid (resulting, at compatibilization) [1, 9] [%] | Wt % Hydrotrope required to compatibilize phases [1, 10] [%] | Wt % Octanoic Acid (resulting, at compatibilization) [1, 10] [%] | Amount of hydrotrope that produced a single phase [1, 11] [grams] | Amount of hydrotrope that produced a single phase [1, 12] [grams] | Amount of hydrotrope that produced a single phase [1, 13] [grams] | Amount of hydrotrope that produced a single phase [1, 14] [grams] | Amount of hydrotrope that produced a single phase [1, 15] [grams] | Wt % Hydrotrope required to compatibilize the phases [4, 16] [%] | Wt % Soy Methyl Esters (at compatibilization) [4, 16] [%] | Wt % Hydrotrope required to compatibilize the phases [4, 17] [%] | Wt % Soy Methyl Esters (at compatibilization) [4, 17] [%] | Wt % Hydrotrope required to compatibilize the phases [4, 18] [%] | further results |
| --- | --- | --- | --- | --- | --- | --- | --- | --- | --- | --- | --- | --- | --- | --- | --- | --- | --- | --- | --- | --- | --- |
| CCCCOCCO [2-butoxyethanol] | 33 | 60 | 52 | 34 | 57 | 21 | 61 | 12 | 52 | 5 | 2.47 | 5.39 | 6.74 | 7.9 | 5.43 | – | – | – | – | – | Freeze-thaw visual observation ([2]; Cycle 1): separation;; Freeze-thaw visual observation ([2]; Cycle 2): separation;; Freeze-thaw visual observation ([2]; Cycle 3): two phases;; Cloud point [3]: 44 °C; Cloud point ([3]; listed as Butyl Cellosolve): 44 °C |
| COCC(C)O (stereo not shown) [PM, propylene glycol methyl ether] | 18 | 74 | 38 | 43 | 42 | 29 | 42 | 17 | 41 | 6 | 1.09 | 3.12 | 3.62 | 3.68 | 3.44 | 51 | 44 | 67 | 25 | 77 | Wt % Soy Methyl Esters (at compatibilization) [4, 18]: 11%; Wt % Hydrotrope required to compatibilize the phases [4, 19]: 81%; Wt % Soy Methyl Esters (at compatibilization) [4, 19]: 5%; Wt % Hydrotrope required to compatibilize the phases [4, 20]: 77%; Wt % Soy Methyl Esters (at compatibilization) [4, 20]: 2%; Wt % Castor oil (at compatibilization) [5, 21]: 36%; Wt % Hydrotrope required to compatibilize phases [5, 21]: 61%; Wt % Castor oil (at compatibilization) [5, 22]: 26%; Wt % Hydrotrope required to compatibilize phases [5, 22]: 65%; Wt % Castor oil (at compatibilization) [5, 23]: 12%; Wt % Hydrotrope required to compatibilize phases [5, 23]: 76%; Wt % Castor oil (at compatibilization) [5, 24]: 5%; Wt % Hydrotrope required to compatibilize phases [5, 24]: 81%; Wt % Castor oil (at compatibilization) [5, 25]: 2%; Wt % Hydrotrope required to compatibilize phases [5, 25]: 83% |
| Sodium xylene-sulfonate [Sodium xylene-sulfonate (SXS) (40%)] | 13 | 61 | 16 | 43 | 17 | 29 | 17 | 18 | 16 | 6 | 2.32 | 3.23 | 7.4 | 3.55 | 3.33 | – | – | – | – | – | Compatibilization of water and soy methyl esters [4, 26]: *The sodium xylenesulfonate did not compatibilize at any measured level (up to >95%).; Compatibilization of water and castor oil [5, 26]: *The sodium xylenesulfonate did not compatibilize at any measured level (up to >95%). |

The next lines start with results.

| Wt % Hydrotrope required to compatibilize phases [1, 6] [%] | Wt % Octanoic Acid (resulting, at compatibilization) [1, 6] [%] | Wt % Hydrotrope required to compatibilize phases [1, 7] [%] | Wt % Octanoic Acid (resulting, at compatibilization) [1, 7] [%] | Wt % Hydrotrope required to compatibilize phases [1, 8] [%] | Wt % Octanoic Acid (resulting, at compatibilization) [1, 8] [%] | Wt % Hydrotrope required to compatibilize phases [1, 9] [%] | Wt % Octanoic Acid (resulting, at compatibilization) [1, 9] [%] | Wt % Hydrotrope required to compatibilize phases [1, 10] [%] | Wt % Octanoic Acid (resulting, at compatibilization) [1, 10] [%] | Amount of hydrotrope that produced a single phase [1, 11] [grams] | Amount of hydrotrope that produced a single phase [1, 12] [grams] | Amount of hydrotrope that produced a single phase [1, 13] [grams] | Amount of hydrotrope that produced a single phase [1, 14] [grams] | Amount of hydrotrope that produced a single phase [1, 15] [grams] | Wt % Hydrotrope required to compatibilize the phases [4, 16] [%] | Wt % Soy Methyl Esters (at compatibilization) [4, 16] [%] | Wt % Hydrotrope required to compatibilize the phases [4, 17] [%] | Wt % Soy Methyl Esters (at compatibilization) [4, 17] [%] | Wt % Hydrotrope required to compatibilize the phases [4, 18] [%] | Compound | further results |
| --- | --- | --- | --- | --- | --- | --- | --- | --- | --- | --- | --- | --- | --- | --- | --- | --- | --- | --- | --- | --- | --- |
| 30 | 63 | 47 | 37 | 51 | 25 | 48 | 16 | 43 | 6 | 2.14 | 4.52 | 10.34 | 4.66 | 3.7 | 48 | 47 | 63 | 28 | 74 | COC(C)COC(C)CO (stereo not shown) [DPM, dipropylene glycol methyl ether] | Wt % Soy Methyl Esters (at compatibilization) [4, 18]: 13%; Wt % Hydrotrope required to compatibilize the phases [4, 19]: 78%; Wt % Soy Methyl Esters (at compatibilization) [4, 19]: 5%; Wt % Hydrotrope required to compatibilize the phases [4, 20]: 78%; Wt % Soy Methyl Esters (at compatibilization) [4, 20]: 2%; Wt % Castor oil (at compatibilization) [5, 21]: 40%; Wt % Hydrotrope required to compatibilize phases [5, 21]: 56%; Wt % Castor oil (at compatibilization) [5, 22]: 26%; Wt % Hydrotrope required to compatibilize phases [5, 22]: 65%; Wt % Castor oil (at compatibilization) [5, 23]: 13%; Wt % Hydrotrope required to compatibilize phases [5, 23]: 74%; Wt % Castor oil (at compatibilization) [5, 24]: 5%; Wt % Hydrotrope required to compatibilize phases [5, 24]: 79%; Wt % Castor oil (at compatibilization) [5, 25]: 2%; Wt % Hydrotrope required to compatibilize phases [5, 25]: 81% |
| 18 | 74 | 37 | 44 | 39 | 31 | 37 | 19 | 36 | 6 | 1.12 | 2.95 | 3.14 | 2.97 | 2.87 | 54 | 41 | 74 | 18 | 78 | CCO [ethanol] | Wt % Soy Methyl Esters (at compatibilization) [4, 18]: 11%; Wt % Hydrotrope required to compatibilize the phases [4, 19]: 80%; Wt % Soy Methyl Esters (at compatibilization) [4, 19]: 6%; Wt % Hydrotrope required to compatibilize the phases [4, 20]: 77%; Wt % Soy Methyl Esters (at compatibilization) [4, 20]: 2%; Wt % Castor oil (at compatibilization) [5, 21]: 40%; Wt % Hydrotrope required to compatibilize phases [5, 21]: 55%; Wt % Castor oil (at compatibilization) [5, 22]: 22%; Wt % Hydrotrope required to compatibilize phases [5, 22]: 69%; Wt % Castor oil (at compatibilization) [5, 23]: 10%; Wt % Hydrotrope required to compatibilize phases [5, 23]: 79%; Wt % Castor oil (at compatibilization) [5, 24]: 5%; Wt % Hydrotrope required to compatibilize phases [5, 24]: 82%; Wt % Castor oil (at compatibilization) [5, 25]: 2%; Wt % Hydrotrope required to compatibilize phases [5, 25]: 84% |
